# Data as given in patent publication US10323036B2 (Nimbus Lakshmi, Inc., priority 2016, dated 2019).
# Read-outs that look alike come from different tables or passages of the source.
# Target: human TYK2 (JH2domain-pseudokinase) (Homo sapiens (Human), UniProt P29597)
# Assay: TYK2 JH2 Domain Binding Assay (KINOMEscan)
# Conditions: read-out: JH2 Kd
# Sequence of human TYK2 (JH2domain-pseudokinase) (P29597 556-888): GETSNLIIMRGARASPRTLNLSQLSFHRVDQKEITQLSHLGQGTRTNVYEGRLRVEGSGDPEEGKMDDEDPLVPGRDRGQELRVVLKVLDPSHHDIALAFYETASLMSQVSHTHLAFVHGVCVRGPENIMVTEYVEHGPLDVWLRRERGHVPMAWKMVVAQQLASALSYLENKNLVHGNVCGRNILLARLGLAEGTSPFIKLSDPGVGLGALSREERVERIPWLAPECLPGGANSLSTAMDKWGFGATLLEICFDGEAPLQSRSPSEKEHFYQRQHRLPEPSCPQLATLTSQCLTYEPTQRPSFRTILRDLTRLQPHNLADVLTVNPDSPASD
SMILES,"Kd (Table 4, JH2 binding assay)","Kd (Table 5, Tyk2 JH2 Domain Binding Assay)"
COc1c(Nc2cc(NC(=O)C3CC3)nc3[nH]n(C)c(=O)c23)cccc1-n1nc(C)c(C)n1 [Compound I-149],> 10 nM,
"COc1c(Nc2cc(Nc3ccc(C)nn3)nc3[nH]n(C)c(=O)c23)cccc1-c1ccn(C)n1 [Compound I-121, 4-((2-methoxy-3-(1-methyl-1H-pyrazol-3-yl)phenyl)amino)-2-methyl-6-((6-methylpyridazin-3-yl)amino)-1,2-dihydro-3H-pyrazolo[3,4-b]pyridin-3-one]",0.5 to 1 nM,
COc1c(Nc2cc(NC(=O)C3CC3)nc3[nH]n(C)c(=O)c23)ccc(C(=O)N2CCCC2)c1F [Compound I-141],1 to 10 nM,
"Cn1[nH]c2nc(NC(=O)C3CC3)cc(Nc3ccc(C4CCC4)cc3S(C)(=O)=O)c2c1=O [Compound I-182, N-(4-((4-cyclobutyl-2-(methylsulfonyl)phenyl)amino)-2-methyl-3-oxo-2,3-dihydro-1H-pyrazolo[3,4-b]pyridin-6-yl)cyclopropanecarboxamide]",0.1 to 0.5 nM,
"COC1CN(c2ccc(Nc3cc(NC(=O)C4CC4)nc4[nH]n(C)c(=O)c34)c(N(C)S(C)(=O)=O)c2)C1 [Compound I-220, N-(4-((4-(3-methoxyazetidin-1-yl)-2-(N-methylmethylsulfonamido)phenyl)amino)-2-methyl-3-oxo-2,3-dihydro-1H-pyrazolo[3,4-b]pyridin-6-yl)cyclopropane-carboxamide]",0.1 to 0.5 nM,
"COc1c(Nc2cc(Nc3ccc(N4CCOCC4)cn3)nc3[nH]n(C)c(=O)c23)cccc1-c1nnn(C)n1 [Compound I-7, 4-((2-methoxy-3-(2-methyl-2H-tetrazol-5-yl)phenyl)amino)-2-methyl-6-((5-morpholinopyridin-2-yl)amino)-1,2-dihydro-3H-pyrazolo[3,4-b]pyridin-3-one]",1 to 10 nM,
"CN(c1cc(Cl)ccc1Nc1cc(NC(=O)C2CC2)nc2[nH]n(C)c(=O)c12)S(C)(=O)=O [Compound I-228, N-(4-((4-chloro-2-(N-methylmethylsulfonamido)phenyl)amino)-2-methyl-3-oxo-2,3-dihydro-1H-pyrazolo[3,4-b]pyridin-6-yl)cyclopropanecarboxamide]",0.1 to 0.5 nM,
"CCc1ccc(Nc2cc(NC(=O)C3CC3)nc3[nH]n(C)c(=O)c23)c(S(C)(=O)=O)c1 [Compound I-152, N-(4-((4-ethyl-2-(methylsulfonyl)phenyl)amino)-2-methyl-3-oxo-2,3-dihydro-1H-pyrazolo[3,4-b]pyridin-6-yl)cyclopropanecarboxamide]",0.5 to 1 nM,
"COCc1ccc(Nc2cc(Nc3cccc(C(F)(F)F)n3)nc3[nH]n(C)c(=O)c23)c(OC)c1 [Compound I-67, 4-((2-methoxy-4-(methoxymethyl)phenyl)amino)-2-methyl-6-((6-(trifluoromethyl)pyridin-2-yl)amino)-1,2-dihydro-3H-pyrazolo[3,4-b]pyridin-3-one]",1 to 10 nM,
"COc1c(Nc2cc(N)nc3[nH]n(C)c(=O)c23)cccc1C(=O)O [Compound I-241, 3-((6-amino-2-methyl-3-oxo-2,3-dihydro-1H-pyrazolo[3,4-b]pyridin-4-yl)amino)-2-methoxybenzoic acid]",> 10 nM,
"COc1c(Cl)cccc1Nc1cc(Nc2ccc(N3CCC3)c(C#N)n2)nc2[nH]n(C)c(=O)c12 [Compound I-144, 3-(azetidin-1-yl)-6-((4-((3-chloro-2-methoxyphenyl)amino)-2-methyl-3-oxo-2,3-dihydro-1H-pyrazolo[3,4-b]pyridin-6-yl)amino)picolinonitrile]",0.1 to 0.5 nM,
"COc1c(Nc2cc(Nc3cccc(C#N)n3)nc3[nH]n(C)c(=O)c23)cccc1-c1ccn(C)n1 [Compound I-122, 6-((4-((2-methoxy-3-(1-methyl-1H-pyrazol-3-yl)phenyl)amino)-2-methyl-3-oxo-2,3-dihydro-1H-pyrazolo[3,4-b]pyridin-6-yl)amino)picolinonitrile]",0.1 to 0.5 nM,
"COc1cc(C(=O)N2CCC2)ccc1Nc1cc(NC(=O)C2CC2)nc2[nH]n(C)c(=O)c12 [Compound I-82, N-(4-((4-(azetidine-1-carbonyl)-2-methoxyphenyl)amino)-2-methyl-3-oxo-2,3-dihydro-1H-pyrazolo[3,4-b]pyridin-6-yl)cyclopropanecarboxamide]",0.1 to 0.5 nM,
"Cc1ncc(Nc2cc(Nc3ccc(C4CC4)cc3S(C)(=O)=O)c3c(=O)n(C)[nH]c3n2)nc1C [Compound I-211, 4-((4-cyclopropyl-2-(methylsulfonyl)phenyl)amino)-6-((5,6-dimethylpyrazin-2-yl)amino)-2-methyl-1,2-dihydro-3H-pyrazolo[3,4-b]pyridin-3-one]",0.5 to 1 nM,
"CN(c1cc(C2CCC2)ccc1Nc1cc(NC(=O)[C@@H]2C[C@@H]2F)nc2[nH]n(C)c(=O)c12)S(C)(=O)=O [Compound I-236, (1S,2S)-N-(4-((4-cyclobutyl-2-(N-methylmethylsulfonamido)phenyl)amino)-2-methyl-3-oxo-2,3-dihydro-1H-pyrazolo[3,4-b]pyridin-6-yl)-2-fluorocyclopropane-1-carboxamide]",> 10 nM,

# The next lines start with the values.
"Kd (Table 4, JH2 binding assay)","Kd (Table 5, Tyk2 JH2 Domain Binding Assay)",SMILES
1 to 10 nM,,"COCc1ccnc(Nc2cc(Nc3cccc(F)c3OC)c3c(=O)n(C)[nH]c3n2)c1 [Compound I-76, 4-((3-fluoro-2-methoxyphenyl)amino)-6-((4-(methoxymethyl)pyridine-2-yl)amino)-2-methyl-1,2-dihydro-3H-pyrazolo[3,4-b]pyridin-3-one]"
< 0.1 nM,,"COc1c(Nc2cc(Nc3cncc(C#N)n3)nc3[nH]n(C)c(=O)c23)cccc1-c1nnn(C)n1 [Compound I-64, 6-((4-((2-methoxy-3-(2-methyl-2H-tetrazol-5-yl)phenyl)amino)-2-methyl-3-oxo-2,3-dihydro-1H-pyrazolo[3,4-b]pyridin-6-yl)amino)pyrazine-2-carbonitrile]"
0.1 to 0.5 nM,,COc1c(Nc2cc(Nc3cc(C)c(F)cn3)nc3[nH]n(C)c(=O)c23)cccc1-c1cnc[nH]1 [Compound I-133]
> 10 nM,,"COc1c(F)cccc1Nc1cc(Nc2ccc(C(F)F)c(C#N)n2)nc2[nH]n(C)c(=O)c12 [Compound I-191, 3-(difluoromethyl)-6-((4-((3-fluoro-2-methoxyphenyl)amino)-2-methyl-3-oxo-2,3-dihydro-1H-pyrazolo[3,4-b]pyridin-6-yl)amino)picolinonitrile]"
,10 to 100 nM,"COc1c(Nc2cc(NC(=O)C3CC3)ncc2-c2cccnn2)cccc1-c1ncn(C)n1 [VIII-11, N-(4-((2-methoxy-3-(1-methyl-1H-1,2,4-triazol-3-yl)phenyl)amino)-5-(pyridazin-3-yl)pyridin-2-yl)cyclopropanecarboxamide]"
0.5 to 1 nM,,"COc1c(Cl)cccc1Nc1cc(Nc2cccc(C#N)n2)nc2[nH]n(C)c(=O)c12 [Compound I-99, 6-((4-((3-chloro-2-methoxyphenyl)amino)-2-methyl-3-oxo-2,3-dihydro-1H-pyrazolo[3,4-b]pyridin-6-yl)amino)picolinonitrile]"
0.1 to 0.5 nM,,"Cn1[nH]c2nc(Nc3ccc(C4CC4)cn3)cc(Nc3ccccc3S(C)(=O)=O)c2c1=O [Compound I-143, 6-((5-cyclopropylpyridin-2-yl)amino)-2-methyl-4-((2-(methylsulfonyl)phenyl)amino)-1,2-dihydro-3H-pyrazolo[3,4-b]pyridin-3-one]"
0.1 to 0.5 nM,,"COc1c(F)cccc1Nc1cc(Nc2cccc(C#N)n2)nc2[nH]n(C)c(=O)c12 [Compound I-81, 6-((4-((3-fluoro-2-methoxyphenyl)amino)-2-methyl-3-oxo-2,3-dihydro-1H-pyrazolo[3,4-b]pyridin-6-yl)amino)picolinonitrile]"
0.1 to 0.5 nM,,"COc1c(F)cccc1Nc1cc(Nc2cc(C)nc(C)n2)nc2[nH]n(C)c(=O)c12 [Compound I-74, 6-((2,6-dimethylpyrimidin-4-yl)amino)-4-((3-fluoro-2-methoxyphenyl)amino)-2-methyl-1,2-dihydro-3H-pyrazolo[3,4-b]pyridin-3-one]"
1 to 10 nM,,"COc1c(F)cccc1Nc1cc(Nc2cccc(N3CC(OC)C3)n2)nc2[nH]n(C)c(=O)c12 [Compound I-94, 4-((3-fluoro-2-methoxyphenyl)amino)-6-((6-(3-methoxyazetidin-1-yl)pyridin-2-yl)amino)-2-methyl-1,2-dihydro-3H-pyrazolo[3,4-b]pyridin-3-one]"
> 10 nM,,COCc1ccnc(Nc2cc(Nc3cccc(C#N)c3OC)c3c(=O)n(C)[nH]c3n2)c1 [Compound I-35]
0.1 to 0.5 nM,,"COc1c(Cl)cccc1Nc1cc(Nc2ccc(C(=O)N3CCCC3)c(C(F)(F)F)n2)nc2[nH]n(C)c(=O)c12 [Compound I-128, 4-((3-chloro-2-methoxyphenyl)amino)-2-methyl-6-((5-(pyrrolidine-1-carbonyl)-6-(trifluoromethyl)pyridin-2-yl)amino)-1,2-dihydro-3H-pyrazolo[3,4-b]pyridin-3-one]"
0.1 to 0.5 nM,,"COCc1ccnc(Nc2cc(Nc3cccc(-c4ncn(C)n4)c3OC)c3c(=O)n(C)[nH]c3n2)c1 [Compound I-15, 4-((2-methoxy-3-(1-methyl-1H-1,2,4-triazol-3-yl)phenyl)amino)-6-((4-(methoxymethyl)pyridin-2-yl)amino)-2-methyl-1,2-dihydro-3H-pyrazolo[3,4-b]pyridin-3-one]"
< 0.1 nM,,"COc1c(Nc2cc(Nc3ccc(C#N)cn3)nc3[nH]n(C)c(=O)c23)cccc1-c1nnn(C)n1 [Compound I-12, 6-((4-((2-methoxy-3-(2-methyl-2H-tetrazol-5-yl)phenyl)amino)-2-methyl-3-oxo-2,3-dihydro-1H-pyrazolo[3,4-b]pyridin-6-yl)amino)nicotinonitrile]"
1 to 10 nM,,"COc1cc(CO)ccc1Nc1cc(Nc2cccc(C(F)(F)F)n2)nc2[nH]n(C)c(=O)c12 [Compound I-72, 4-((4-(hydroxymethyl)-2-methoxyphenyl)amino)-2-methyl-6-((6-(trifluoromethyl)pyridin-2-yl)amino)-1,2-dihydro-3H-pyrazolo[3,4-b]pyridin-3-one]"
0.1 to 0.5 nM,,"COc1c(Cl)cccc1Nc1cc(Nc2ccc(C)c(C#N)n2)nc2[nH]n(C)c(=O)c12 [Compound I-132, 6-((4-((3-chloro-2-methoxyphenyl)amino)-2-methyl-3-oxo-2,3-dihydro-1H-pyrazolo[3,4-b]pyridin-6-yl)amino)-3-methylpicolinonitrile]"
